# Article PMC4365076, “The phage growth limitation system in Streptomyces coelicolor A(3)2 is a toxin/antitoxin system, comprising enzymes with DNA methyltransferase, protein kinase and ATPase activity” (Virology, 2015)
# Substitutions are numbered along the chain they refer to. Names may count otherwise.
# T1: PglY (His6–PglY) (Streptomyces coelicolor, UniProt O86682)
# T1 construct: ~160 kDa band, MALDI-TOF identified; Walker A GSFGSGKS at 75–82
# T1 sequence (O86682 1-1294): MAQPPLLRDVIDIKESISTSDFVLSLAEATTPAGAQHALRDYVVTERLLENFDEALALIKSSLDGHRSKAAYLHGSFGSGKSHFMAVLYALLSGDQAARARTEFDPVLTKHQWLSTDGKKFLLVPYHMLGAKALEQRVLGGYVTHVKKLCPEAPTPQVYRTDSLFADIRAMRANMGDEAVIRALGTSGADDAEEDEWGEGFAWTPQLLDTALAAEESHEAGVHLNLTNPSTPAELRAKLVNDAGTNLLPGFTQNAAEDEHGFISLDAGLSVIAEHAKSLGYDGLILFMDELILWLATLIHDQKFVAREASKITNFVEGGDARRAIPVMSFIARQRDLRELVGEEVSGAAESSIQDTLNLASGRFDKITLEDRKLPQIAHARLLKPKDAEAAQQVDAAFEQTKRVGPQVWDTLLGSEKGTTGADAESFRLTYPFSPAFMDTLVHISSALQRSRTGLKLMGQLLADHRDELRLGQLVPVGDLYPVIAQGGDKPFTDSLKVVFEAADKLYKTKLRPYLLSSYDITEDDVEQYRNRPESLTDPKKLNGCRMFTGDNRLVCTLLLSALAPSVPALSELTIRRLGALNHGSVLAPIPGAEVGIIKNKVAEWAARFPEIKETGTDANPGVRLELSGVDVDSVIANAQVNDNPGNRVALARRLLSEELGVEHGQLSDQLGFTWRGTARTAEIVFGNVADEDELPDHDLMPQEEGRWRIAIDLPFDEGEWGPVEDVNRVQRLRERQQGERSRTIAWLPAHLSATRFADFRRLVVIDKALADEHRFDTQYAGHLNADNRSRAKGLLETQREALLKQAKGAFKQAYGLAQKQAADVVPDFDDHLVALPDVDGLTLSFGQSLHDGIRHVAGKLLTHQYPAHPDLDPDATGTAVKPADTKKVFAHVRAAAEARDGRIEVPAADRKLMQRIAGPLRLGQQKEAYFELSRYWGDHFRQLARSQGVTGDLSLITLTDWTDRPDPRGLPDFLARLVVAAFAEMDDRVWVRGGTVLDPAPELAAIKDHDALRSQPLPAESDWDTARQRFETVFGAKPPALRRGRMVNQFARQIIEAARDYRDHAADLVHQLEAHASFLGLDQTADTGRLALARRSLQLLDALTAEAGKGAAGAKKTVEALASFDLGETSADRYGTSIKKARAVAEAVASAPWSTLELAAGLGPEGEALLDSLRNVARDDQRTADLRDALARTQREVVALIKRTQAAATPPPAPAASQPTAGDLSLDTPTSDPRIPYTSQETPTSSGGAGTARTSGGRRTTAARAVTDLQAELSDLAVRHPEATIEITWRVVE
# T2: PglX (PglX–His6) (Streptomyces coelicolor, UniProt Q8CJM2)
# T2 construct: NPPY motif at 378–381
# T2 sequence (Q8CJM2 1-1210): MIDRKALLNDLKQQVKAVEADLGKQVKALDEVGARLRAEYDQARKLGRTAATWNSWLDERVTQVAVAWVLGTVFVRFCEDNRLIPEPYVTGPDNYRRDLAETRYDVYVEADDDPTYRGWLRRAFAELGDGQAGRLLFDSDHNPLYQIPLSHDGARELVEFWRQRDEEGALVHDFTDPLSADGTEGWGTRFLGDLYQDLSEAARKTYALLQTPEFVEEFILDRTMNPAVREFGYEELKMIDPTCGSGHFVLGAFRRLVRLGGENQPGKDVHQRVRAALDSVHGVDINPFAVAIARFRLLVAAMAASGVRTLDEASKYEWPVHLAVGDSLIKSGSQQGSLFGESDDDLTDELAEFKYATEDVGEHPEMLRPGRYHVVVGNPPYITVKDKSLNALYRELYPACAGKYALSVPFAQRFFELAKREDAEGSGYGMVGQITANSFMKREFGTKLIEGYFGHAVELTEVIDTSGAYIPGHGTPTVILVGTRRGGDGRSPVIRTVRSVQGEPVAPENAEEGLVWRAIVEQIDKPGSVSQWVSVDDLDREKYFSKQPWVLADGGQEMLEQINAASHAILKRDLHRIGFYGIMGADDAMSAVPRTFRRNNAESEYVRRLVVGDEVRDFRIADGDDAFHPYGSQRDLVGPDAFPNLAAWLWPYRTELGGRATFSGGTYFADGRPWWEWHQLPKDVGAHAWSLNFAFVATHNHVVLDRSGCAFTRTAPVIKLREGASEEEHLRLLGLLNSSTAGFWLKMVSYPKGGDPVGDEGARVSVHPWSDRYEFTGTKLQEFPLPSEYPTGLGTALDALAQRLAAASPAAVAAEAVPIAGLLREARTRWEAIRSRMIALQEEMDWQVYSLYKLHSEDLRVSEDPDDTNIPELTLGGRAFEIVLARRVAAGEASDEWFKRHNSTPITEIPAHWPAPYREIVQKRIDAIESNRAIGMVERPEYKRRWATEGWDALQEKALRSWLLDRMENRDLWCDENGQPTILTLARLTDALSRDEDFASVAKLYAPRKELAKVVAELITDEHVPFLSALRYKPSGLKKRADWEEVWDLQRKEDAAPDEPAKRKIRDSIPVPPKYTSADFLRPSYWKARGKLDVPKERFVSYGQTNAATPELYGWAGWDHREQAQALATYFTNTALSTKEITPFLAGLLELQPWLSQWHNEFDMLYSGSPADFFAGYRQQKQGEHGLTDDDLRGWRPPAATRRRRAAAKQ
# B1: PglY (His6–PglY) (Streptomyces coelicolor A3(2)) (protein)
# chain: T1 sequence (O86682 1-1294)
# notes: ~160 kDa band, MALDI-TOF identified; Walker A GSFGSGKS at 75–82
# B2: PglY (His6–PglY) (Streptomyces coelicolor A3(2); K81A/S82A) (protein)
# chain: T1 sequence (O86682 1-1294) with K81A, S82A
# notes: as for B1
# Experiments:
# [1] = biological target: T1, PglY (His6–PglY); assay: inhibition of ATP hydrolysis, Pi release, malachite green; assay type: biochemical; conditions: 1–3 mM ADP-NP against 1–3 mM ATP; 30 °C, pH 8.0, 10 mM MgCl2
# [2] = biological target: T2, PglX (PglX–His6); assay: 3H-methyl incorporation into DNA, scintillation counting; assay type: biochemical; conditions: 12 μM labelled compound, phage ϕC31 DNA co-substrate, 1 mM EDTA, pH 7.5, 30 °C; partially purified enzyme
# [3] = substrate: Nc1ncnc2c1ncn2[C@@H]1O[C@H](COP(=O)(O)OP(=O)(O)OP(=O)(O)O)[C@@H](O)[C@H]1O; assay: Pi release, malachite green; assay type: biochemical, Streptomyces coelicolor; conditions: 30 °C, 40 mM HEPES pH 8.0, 10 mM MgCl2, 10 mM DTT, 0.1 mg/ml BSA
molecule,measurement,setting,value
Nc1ncnc2c1ncn2[C@@H]1O[C@H](COP(=O)(O)OP(=O)(O)NP(=O)(O)O)[C@@H](O)[C@H]1O [ADP-NP],"inhibition of ATP hydrolysis, Pi release, malachite green",[1],"severely inhibited rate of hydrolysis of ATP, indicative of ADP-NP binding and inhibition of activity"
C[S+](CC[C@H](N)C(=O)O)C[C@H]1O[C@@H](n2cnc3c(N)ncnc32)[C@H](O)[C@@H]1O (stereo partly shown) [AdoMet],"3H-methyl incorporation into DNA, scintillation counting",[2],incorporation of label into TCA precipitable material was dependent on DNA addition
B1,Km,[3],0.5 mM
B2,Km,[3]; Walker A double mutant,100 mM
